Reference: patent publication EP3807270B1, “NOVEL HETEROARYL HETEROCYCLYL COMPOUNDS FOR THE TREATMENT OF AUTOIMMUNE DISEASE” (F. Hoffmann-La Roche AG, priority 2018, dated 2019)

How the values were obtained:
[1] = biological target: T1, hTLR7 (Homo sapiens, UniProt Q9NYK1); design: host or cells: HEK; settings: data disclosed in US20150105370; read-out: HEK/hTLR7 IC50; cited from earlier work
T1 sequence (Q9NYK1 27-1049): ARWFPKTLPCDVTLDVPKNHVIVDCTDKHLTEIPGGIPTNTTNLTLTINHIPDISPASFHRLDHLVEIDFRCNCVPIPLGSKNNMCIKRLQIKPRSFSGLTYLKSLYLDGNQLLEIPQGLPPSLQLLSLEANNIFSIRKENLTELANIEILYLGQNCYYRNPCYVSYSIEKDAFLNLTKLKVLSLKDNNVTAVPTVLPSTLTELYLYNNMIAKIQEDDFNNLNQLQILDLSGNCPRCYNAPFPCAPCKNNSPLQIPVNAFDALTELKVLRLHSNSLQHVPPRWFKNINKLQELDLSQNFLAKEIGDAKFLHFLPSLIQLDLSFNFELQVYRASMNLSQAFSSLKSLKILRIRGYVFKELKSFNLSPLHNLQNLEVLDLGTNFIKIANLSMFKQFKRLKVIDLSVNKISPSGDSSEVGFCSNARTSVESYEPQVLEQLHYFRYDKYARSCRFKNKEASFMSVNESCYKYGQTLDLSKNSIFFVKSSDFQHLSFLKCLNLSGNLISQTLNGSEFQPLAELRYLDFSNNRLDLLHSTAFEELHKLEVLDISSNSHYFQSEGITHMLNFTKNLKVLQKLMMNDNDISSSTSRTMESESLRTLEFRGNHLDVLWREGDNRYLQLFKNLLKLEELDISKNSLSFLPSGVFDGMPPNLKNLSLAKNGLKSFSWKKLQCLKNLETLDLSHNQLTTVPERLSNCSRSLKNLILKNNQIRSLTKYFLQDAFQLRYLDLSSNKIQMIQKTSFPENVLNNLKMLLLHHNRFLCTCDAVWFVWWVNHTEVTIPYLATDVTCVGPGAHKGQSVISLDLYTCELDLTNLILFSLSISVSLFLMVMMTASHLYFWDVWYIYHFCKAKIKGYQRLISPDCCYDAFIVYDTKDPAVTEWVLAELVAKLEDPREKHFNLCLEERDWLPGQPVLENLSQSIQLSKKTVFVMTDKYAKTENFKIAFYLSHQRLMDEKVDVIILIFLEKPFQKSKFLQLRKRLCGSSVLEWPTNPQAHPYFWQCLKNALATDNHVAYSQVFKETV

[2] = biological target: T2, hTLR9 (Homo sapiens, UniProt Q9NR96); design: host or cells: HEK; settings: data disclosed in US20150105370; read-out: HEK/hTLR9 IC50; cited from earlier work
T2 sequence (Q9NR96 26-1032): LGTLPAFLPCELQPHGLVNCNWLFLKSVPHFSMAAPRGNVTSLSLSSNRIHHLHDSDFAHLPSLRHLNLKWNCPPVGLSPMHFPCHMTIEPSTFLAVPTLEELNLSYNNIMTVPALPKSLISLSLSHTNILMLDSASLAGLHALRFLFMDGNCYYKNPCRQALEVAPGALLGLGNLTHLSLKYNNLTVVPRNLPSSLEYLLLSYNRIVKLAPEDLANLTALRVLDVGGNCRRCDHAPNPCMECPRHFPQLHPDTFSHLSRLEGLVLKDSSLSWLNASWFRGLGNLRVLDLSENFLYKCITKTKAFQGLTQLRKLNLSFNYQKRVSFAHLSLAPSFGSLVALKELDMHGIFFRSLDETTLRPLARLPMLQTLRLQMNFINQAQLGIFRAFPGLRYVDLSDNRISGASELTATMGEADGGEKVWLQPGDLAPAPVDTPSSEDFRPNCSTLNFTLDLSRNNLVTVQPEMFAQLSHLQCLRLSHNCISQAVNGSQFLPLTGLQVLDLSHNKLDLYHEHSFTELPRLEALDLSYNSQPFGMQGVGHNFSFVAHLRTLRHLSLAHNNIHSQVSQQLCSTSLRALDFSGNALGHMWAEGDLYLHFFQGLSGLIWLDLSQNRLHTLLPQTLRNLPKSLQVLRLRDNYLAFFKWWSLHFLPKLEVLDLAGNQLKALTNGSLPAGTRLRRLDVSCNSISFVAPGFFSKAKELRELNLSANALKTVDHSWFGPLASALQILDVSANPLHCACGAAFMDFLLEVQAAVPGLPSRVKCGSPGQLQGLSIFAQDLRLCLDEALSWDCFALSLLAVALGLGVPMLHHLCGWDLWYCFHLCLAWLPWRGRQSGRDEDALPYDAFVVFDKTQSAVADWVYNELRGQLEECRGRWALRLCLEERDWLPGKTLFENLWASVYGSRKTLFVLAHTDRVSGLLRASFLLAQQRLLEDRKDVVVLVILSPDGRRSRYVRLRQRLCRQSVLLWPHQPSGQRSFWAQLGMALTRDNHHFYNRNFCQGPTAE

[3] = Human microsome stability assay; format: in vitro ADME; settings: 1 µM test compound, 0.5 mg/mL liver microsomal protein, 37 °C
Protocol: The human microsomal stability assay is used for early assessment of metabolic stability of a test compound in human liver microsomes.
Human liver microsomes (Cat.NO.: 452117, Corning, USA;Cat.NO.:H2610, Xenotech, USA) were preincubated with test compound for 10 minutes at 37 °C in 100 mM potassium phosphate buffer, pH 7.4. The reactions were initiated by adding NADPH regenerating system. The final incubation mixtures contained 1 µM test compound, 0.5 mg/mL liver microsomal protein, 1 mM MgClz, 1 mM NADP, 1 unit/mL isocitric dehydrogenase and 6 mM isocitric acid in 100 mM potassium phosphate buffer, pH 7.4. After incubation times of 0, 3, 6, 9, 15 and 30 minutes at 37 °C, 300 µL of cold acetonitrile (including internal standard) was added to 100 µL incubation mixture to terminate the reaction. Following precipitation and centrifugation, the amount of compound remaining in the samples were determined by LC-MS/MS. Controls of no NADPH regenerating system at zero and 30 minutes were also prepared and analyzed. […] Table 6. Human liver microsome stability of the compounds of present invention

[4] = biological target: T3, CYP2D6 (Homo sapiens, UniProt P10635); experiment: CYP inhibition assay in human liver microsome; format: in vitro ADME; settings: human liver microsomes, probe dextromethorphan, 10µM test compound, dextromethorphan substrate, <0: not or weak inhibitor, read-out: CYP 2D6 inhibition %@10µM
T3 construct: tissue BD-Gentest 452117; host or cells: human liver microsomes
Protocol: This is a high throughput screening assay used for assessment of reversible inhibition of CYP2D6 activity of test compounds in human liver microsome (HLM) in early discovery stage. Table 4. Chemicals and materials used in the CYP inhibition assay
10 mM DMSO stock solutions of test compounds were diluted in DMSO to generate 2 mM intermediate stock solution. 250 nL of intermediate stock solution were transferred in duplicate into 3 separate 384 well microtitre plates (assay-ready plates). A mixture of HLM and each substrate was made up. 45 µL of HLM substrate mix was then transferred to each well of an assay ready plate and mixed. The negative (solvent) and positive control (standard inhibitor for CYP 2D6) were included in each assay ready plate. The assay ready plate was warmed to 37 °C in an incubator over 10 minutes. 5 µL pre-warmed NADPH regenerating system was added to each incubation well to start the reaction. Final incubation volume was 50 µL. The assay plate then was placed back in the 37 °C incubator. After 10-minute incubation, incubates were quenched by addition of 50 µL 100% acetonitrile containing internal standards (20 ng/mL D3-Dextrorphan). The supernatants were collected for RapidFire/MS/MS analysis.
RapidFire online solid phase extraction/sample injection system (Agilent) coupled with API4000 triple quadrupole mass spectrometer (AB Sciex) were used for sample analysis. The mobile phase composed of acetonitrile and water supplemented with 0.1% formic acid. A C4 solid phase extraction cartridge is used for sample separation. MS detection is achieved in positive ion MRM mode.
Peak areas for substrate, metabolite and internal standard are determined using the RapidFire integrator software (version 3.6.12009.12296). Peak area ratios (PAR) of metabolite and internal standard (stable-labelled metabolite) are then calculated. The measurement window for each experiment is then defined: • PAR (0% activity)= average PAR for all incubations containing concentrated inhibitor; • Par (100% activity)= average PAR for all incubations containing no inhibitor (DMSO controls); • % Activity (test inhibitor) • =[PAR(test inhibitor)-PAR(0% activity)]/[PAR(100% activity)-PAR(0% activity)]; • % Inhibition (test inhibitor)=100-% Activity (test inhibitor).

T3 sequence (P10635 whole entry): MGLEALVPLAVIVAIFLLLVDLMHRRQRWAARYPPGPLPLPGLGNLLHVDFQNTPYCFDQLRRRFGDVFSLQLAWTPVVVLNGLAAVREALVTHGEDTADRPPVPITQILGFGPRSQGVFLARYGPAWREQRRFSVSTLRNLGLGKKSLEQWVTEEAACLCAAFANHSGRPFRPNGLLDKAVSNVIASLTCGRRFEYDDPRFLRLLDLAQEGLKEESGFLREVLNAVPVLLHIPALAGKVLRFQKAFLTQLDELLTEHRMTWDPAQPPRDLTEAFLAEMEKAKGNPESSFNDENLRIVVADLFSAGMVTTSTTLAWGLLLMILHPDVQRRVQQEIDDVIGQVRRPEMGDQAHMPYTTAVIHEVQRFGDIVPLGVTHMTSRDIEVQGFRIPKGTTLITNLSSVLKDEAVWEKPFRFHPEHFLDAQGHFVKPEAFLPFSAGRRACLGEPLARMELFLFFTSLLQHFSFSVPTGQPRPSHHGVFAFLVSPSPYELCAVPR

## C[C@@H]1CN(c2ccc(C#N)c3ncccc23)C[C@H](CN2CC(NS(=O)(=O)c3ccc(F)cc3)C2)O1 [ER-894155]
[1]
  IC50: 282 nM
[2]
  IC50: > 10000 nM

## Cc1nn(C)cc1S(=O)(=O)NC1CCN(C[C@H]2CN(c3ccc(C#N)c4ncccc34)C[C@@H](C)O2)CC1 [ER-894160]
[1]
  IC50: 199 nM
[2]
  IC50: > 10000 nM

## C[C@@H]1CN(c2ccc(C#N)c3ncccc23)C[C@H](CN2CC[C@@H](NC(=O)c3ccccc3)C2)O1 [ER-894544]
[1]
  IC50: 43 nM
[2]
  IC50: > 6200 nM

## C[C@@H]1CN(c2ccc(C#N)c3ncnn23)C[C@H](CN2CCN(c3cnc4c(c3)CNCC4)CC2)O1 [Example 27, 5-[(2R,6S)-2-methyl-6-[[4-(5,6,7,8-tetrahydro-1,6-naphthyridin-3-yl)piperazin-1-yl]methyl]morpholin-4-yl]-[1,2,4]triazolo[1,5-a]pyridine-8-carbonitrile]
[3]
  Clearance of Human microsome: 7.28 mL/min/kg

## C[C@@H]1CN(c2ccc(C#N)c3ncccc23)C[C@H](CN2CC3COCC(C2)N3c2cnc3c(c2)CNC3)O1 [Example 37, 5-[(2S,6R)-2-[[9-(6,7-dihydro-5H-pyrrolo[3,4-b]pyridin-3-yl)-3-oxa-7,9-diazabicyclo[3.3.1]nonan-7-yl]methyl]-6-methyl-morpholin-4-yl]quinoline-8-carbonitrile]
[3]
  Clearance of Human microsome: 6.72 mL/min/kg

## COc1ccc(N2C[C@H](CN3CCN(c4cc5c(cn4)CCNC5)CC3)O[C@H](C)C2)c2nccnc12 [Example 89, (2R,6S)-4-(8-methoxyquinoxalin-5-yl)-2-methyl-6-[[4-(5,6,7,8-tetrahydro-2,6-naphthyridin-3-yl)piperazin-1-yl]methyl]morpholine]
[3]
  Clearance of Human microsome: 6.54 mL/min/kg

## Cc1cnc2c(C#N)ccc(N3C[C@H](CN4CCN(c5cc6c(cn5)CCNC6)CC4)O[C@H](C)C3)c2n1 [Example 90, 2-methyl-8-[(2R,6S)-2-methyl-6-[[4-(5,6,7,8-tetrahydro-2,6-naphthyridin-3-yl)piperazin-1-yl]methyl]morpholin-4-yl]quinoxaline-5-carbonitrile]
[4]
  inhibition at 10 min, 10 µM: 5%

## C[C@@H]1CN(c2ccc(C(F)(F)F)c3nccnc23)C[C@H](CN2CCN(c3cc4c(cn3)CCNC4)CC2)O1 [Example 91, (2R,6S)-2-methyl-6-[[4-(5,6,7,8-tetrahydro-2,6-naphthyridin-3-yl)piperazin-1-yl]methyl]-4-[8-(trifluoromethyl)quinoxalin-5-yl]morpholine]
[4]
  inhibition at 10 min, 10 µM: 14%

## C[C@@H]1CN(c2cc(=O)n(C)c3ncccc23)C[C@H](CN2CCN(c3ccc4c(n3)CN[C@@H]4C)CC2)O1 [Example 100, 1-methyl-4-[(2R,6S)-2-methyl-6-[[4-[(5R)-5-methyl-6,7-dihydro-5H-pyrrolo[3,4-b]pyridin-2-yl]piperazin-1-yl]methyl]morpholin-4-yl]-1,8-naphthyridin-2-one]
[3]
  Clearance of Human microsome: 8.54 mL/min/kg

## CCn1c(=O)cc(N2C[C@H](CN3CCN(c4ccc5c(n4)CN[C@@H]5C)CC3)O[C@H](C)C2)c2cccnc21 [Example 101, 1-ethyl-4-[(2R,6S)-2-methyl-6-[[4-[(5R)-5-methyl-6,7-dihydro-5H-pyrrolo[3,4-b]pyridin-2-yl]piperazin-1-yl]methyl]morpholin-4-yl]-1,8-naphthyridin-2-one]
[3]
  Clearance of Human microsome: 6.67 mL/min/kg

## C[C@@H]1CN(c2cc(=O)n(C)c3ncccc23)C[C@H](CN2CCN(c3cc4c(cn3)CCNC4)CC2)O1 [Example 103, 1-methyl-4-[(2R,6S)-2-methyl-6-[[4-(5,6,7,8-tetrahydro-2,6-naphthyridin-3-yl)piperazin-1-yl]methyl]morpholin-4-yl]-1,8-naphthyridin-2-one]
[3]
  Clearance of Human microsome: 6.15 mL/min/kg
